Values joined by “and” are separate entries in the source; they are usually repeats but may differ in a detail not shown here. Identical values can stand only once.
Test system: imiquimod-induced psoriasis
Assay: Imiquimod-induced psoriasis model
Assay type: in vivo, mice
Details: for Body Weight D1: Day 1 (before treatment start on Day 8); for Body Weight D1 / Body Weight D3 / Body Weight D5 / Body Weight D7 / Body Weight D8 / Body Weight D9 / Body Weight D10 / Body Weight D11 / Body Weight D12 / Body Weight D13 / Body Weight D14 / Body Weight D15 / MBWC D1-D8 / MBWC D8-D15 / PASI Scores: individual animals; for Body Weight D3: Day 3 (before treatment start on Day 8); for Body Weight D5: Day 5 (before treatment start on Day 8); for Body Weight D7: Day 7 (before treatment start on Day 8); for Body Weight D8: Day 8 (first day of treatment); for Body Weight D9: Day 9; for Body Weight D10: Day 10; for Body Weight D11: Day 11; for Body Weight D12: Day 12; for Body Weight D13: Day 13; for Body Weight D14: Day 14; for Body Weight D15: Day 15; for MBWC D1-D8: body weight change Day 1 to Day 8 (before treatment); for MBWC D8-D15: body weight change Day 8 to Day 15 (treatment period); for PASI Scores: IMI + Compound A 1 mg/kg
Outline: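 Mice given topical imiquimod (5% cream) daily on depilated backs Days 1–14; Compound A in 5% DMSO/40% PEG-400/55% saline from Day 8, clobetasol topical as reference. Daily PASI (erythema, induration, peeling, each 0–4, summed) Days 8–15; spleen weight, open-field behaviour, serum IL-1B, IL-6, IL-17, TNF-α, IL-22, IL-23 at Day 15.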

[1] = IMI + 1 mg/kg, 1 mg/kg, in g (unit assumed)
[2] = IMI + 3 mg/kg, 3 mg/kg, in g (unit assumed)
[3] = IMI + 10 mg/kg, 10 mg/kg, in g (unit assumed)

Compound: Cn1cc(-c2ccccc2)c(-c2cn(C)c(=O)c3[nH]c(-c4cnn(C(F)(F)F)c4)cc23)cc1=O [Compound A, 6-methyl-4-(1-methyl-2-oxo-5-phenyl-1,2-dihydropyridin-4-yl)-2-(1-(trifluoromethyl)-1H-pyrazol-4-yl)-1,6-dihydro-7H-pyrrolo[2,3-c]pyridin-7-one]
- PASI score improvement by day 15 (1 mg/kg): > 80%
- PASI score improvement by day 15 (3 mg/kg): > 90%
- symptoms by day 15 (representative images) (3 mg/kg): nearly entirely symptom free
- PASI-90 (change in PASI score ≥90%) by day 7 of treatment (3 mg/kg IP once daily): surpassed PASI-90
- PASI score improvement by day 15 (10 mg/kg): > 90%
- efficacy on the treatment of psoriasis (3 tested doses (1, 3, 10 mg/kg)): very good efficacy
- licking scoring (D15): effective in reducing licking scoring
- rearing behavior (D15, open field): restored rearing behavior
- Body Weight D1 [1]: 16.93 and 17.80 and 16.08 and 16.97 and 17.74 and 17.12 and 18.36 and 17.34
- Body Weight D3 [1]: 15.40 and 16.02 and 15.09 and 15.92 and 16.29 and 16.59 and 16.98 and 15.19
- Body Weight D5 [1]: 15.20 and 16.76 and 15.65 and 16.45 and 16.71 and 17.23 and 17.40 and 15.42
- Body Weight D7 [1]: 15.18 and 17.36 and 15.85 and 16.10 and 16.71 and 17.27 and 17.41 and 15.38
- Body Weight D8 [1]: 14.60 and 16.99 and 15.82 and 16.44 and 16.60 and 17.49 and 16.66 and 14.75
- Body Weight D9 [1]: 14.63 and 17.16 and 15.82 and 16.15 and 16.59 and 17.04 and 16.41 and 15.55
- Body Weight D10 [1]: 14.70 and 16.93 and 15.61 and 15.89 and 16.21 and 16.73 and 16.12 and 15.11
- Body Weight D11 [1]: 14.84 and 17.22 and 15.81 and 15.74 and 16.25 and 16.90 and 16.89 and 15.58
- Body Weight D12 (IMI + 1 mg/kg, 1 mg/kg): 14.87 and 16.99 (2×) and 15.46 and 15.54 and 17.30 and 17.06 and 15.66
- Body Weight D13 [1]: 15.05 and 17.40 and 16.20 and 15.94 and 16.75 and 17.05 and 16.69 and 15.46
- Body Weight D14 [1]: 15.56 and 17.50 and 16.49 and 16.50 and 17.20 and 17.24 and 16.86 and 16.35
- Body Weight D15 [1]: 15.74 and 17.76 and 16.69 and 17.05 and 17.07 and 17.34 and 17.23 and 16.41
- MBWC D1-D8 (IMI + 1 mg/kg, 1 mg/kg): −2.33 and −0.81 and −0.26 and −0.53 and −1.14 and 0.37 and −1.70 and −2.59
- MBWC D8-D15 (IMI + 1 mg/kg, 1 mg/kg): 1.14 and 0.77 and 0.87 and 0.61 and 0.47 and −0.15 and 0.57 and 1.66
- Body Weight D1 [2]: 17.31 and 16.98 and 19.05 and 16.34 and 18.16 and 17.71 and 15.90 and 17.04
- Body Weight D3 [2]: 15.94 and 14.69 and 16.63 and 15.29 and 15.93 and 15.05 and 14.65 and 15.53
- Body Weight D5 [2]: 16.84 and 15.15 and 16.74 and 15.65 and 17.11 and 16.06 and 16.09 and 15.35
- Body Weight D7 [2]: 16.64 and 14.71 and 16.54 and 14.84 and 17.16 and 15.73 and 15.75 and 15.45
- Body Weight D8 (IMI + 3 mg/kg, 3 mg/kg): 16.59 and 14.84 and 16.76 and 15.51 (2×) and 15.95 and 15.14 and 15.67
- Body Weight D9 [2]: 16.53 and 14.49 and 16.98 and 15.40 and 16.26 and 15.22 and 15.49 and 14.89
- Body Weight D10 [2]: 16.64 and 14.53 and 17.40 and 15.71 and 16.02 and 15.31 and 14.80 and 14.76
- Body Weight D11 [2]: 17.05 and 14.95 and 17.25 and 15.60 and 16.07 and 15.67 and 15.43 and 15.33
- Body Weight D12 [2]: 17.56 and 15.38 and 17.88 and 15.18 and 16.82 and 16.07 and 15.80 and 15.88
- Body Weight D13 [2]: 17.68 and 16.03 and 18.03 and 15.39 and 16.24 and 16.09 and 15.63 and 15.61
- Body Weight D14 [2]: 17.80 and 16.01 and 17.97 and 15.32 and 16.91 and 16.84 and 15.90 and 15.97
- Body Weight D15 (IMI + 3 mg/kg, 3 mg/kg): 18.44 (2×) and 16.47 (2×) and 15.82 and 16.95 and 16.91 and 16.13
- MBWC D1-D8 (IMI + 3 mg/kg, 3 mg/kg): −0.72 and −2.14 and −2.29 and −0.83 and −2.21 and −2.57 and −0.39 and −1.37
- MBWC D8-D15 (IMI + 3 mg/kg, 3 mg/kg): 1.85 and 1.63 and 1.68 and 0.31 and 1.00 and 1.77 and 0.62 and 0.80
- Body Weight D1 [3]: 17.49 and 17.30 and 19.10 and 19.20 and 19.68 and 17.68 and 16.28 and 17.45
- Body Weight D3 [3]: 15.01 and 14.91 and 17.43 and 18.70 and 15.42 and 17.04 and 13.99 and 14.57
- Body Weight D5 (IMI + 10 mg/kg, 10 mg/kg): 15.12 (2×) and 14.82 and 17.32 and 19.02 and 15.82 and 16.99 and 15.18
- Body Weight D7 [3]: 16.33 and 15.77 and 17.25 and 18.62 and 16.18 and 17.36 and 15.18 and 14.93
- Body Weight D8 [3]: 16.07 and 15.40 and 17.12 and 18.84 and 15.35 and 16.21 and 14.88 and 14.68
- Body Weight D9 [3]: 15.69 and 15.96 and 16.63 and 19.27 and 15.91 and 16.41 and 14.96 and 14.71
- Body Weight D10 [3]: 15.53 and 15.84 and 16.68 and 18.91 and 16.27 and 16.73 and 15.10 and 14.49
- Body Weight D11 (IMI + 10 mg/kg, 10 mg/kg): 15.74 and 15.58 (2×) and 16.84 and 19.15 and 16.81 and 17.05 and 15.32
- Body Weight D12 [3]: 15.83 and 15.88 and 17.03 and 19.25 and 17.13 and 17.19 and 16.27 and 15.58
- Body Weight D13 [3]: 17.35 and 16.03 and 17.55 and 19.51 and 16.98 and 17.10 and 16.02 and 15.65
- Body Weight D14 [3]: 16.58 and 16.42 and 17.59 and 19.36 and 17.68 and 17.84 and 16.59 and 15.62
- Body Weight D15 [3]: 16.60 and 16.43 and 18.35 and 19.39 and 17.81 and 18.26 and 16.77 and 15.96
- MBWC D1-D8 (IMI + 10 mg/kg, 10 mg/kg): −1.42 and −1.90 and −1.98 and −0.36 and −4.33 and −1.47 and −1.40 and −2.77
- MBWC D8-D15 (IMI + 10 mg/kg, 10 mg/kg): 0.53 and 1.03 and 1.23 and 0.55 and 2.46 and 2.05 and 1.89 and 1.28
- PASI Scores (D8 (day treatment started), 1 mg/kg): 8 (4×) and 6 (2×) and 7 (2×)
- PASI Scores (D9, 1 mg/kg): 7 (3×) and 6 (3×) and 9 and 8
- PASI Scores (D10, 1 mg/kg): 7 and 6 (3×) and 5 (3×) and 8
- PASI Scores (D11, 1 mg/kg): 6 (3×) and 4 (2×) and 5 and 8 and 7

From patent US20260217701A1, “SELECTIVE BET INHIBITORS AND USES THEREOF” (Tay Therapeutics Limited, priority 2022, published 2026)
